Measurements taken from patent publication US6555062B1, “Reagent container for an automated analyzer” (Bayer Corporation, priority 1991, dated 2003).
Several values for one entry are separate records, joined by “and”; a condition that tells them apart may be missing. Identical values can stand only once.

Columns and labels:
[1] = tested on: T4 antiserum covalently coupled to the solid phase; assay: Free thyroxine (FT4) competitive chemiluminescent immunoassay, specificity (% cross-reactivity); format: binding; conditions: FT4 assay, anti-T4 paramagnetic particles, 7.5 minutes at 37° C.
Experimental: A free thyroxine (FT4) assay has been developed for the above described automated analyzer. The FT4 assay is a competitive binding assay in which FT4 in a test sample competes with labeled T4 (tracer reagent) for a limited amount of T4 antiserum covalently coupled to the solid phase. In the preferred format of this assay acridinium ester is the label and paramagnetic particles serve as the solid phase. A test sample (25 uL.) acridinium ester labeled T4 (100 uL.) and anti-T4 paramagnetic particles (450 uL.) are dispensed by the analyzer into a cuvette and incubated for 7.5 minutes at 37° C. After incubation, magnetic separation and washes are performed as described prior to detection of the chemiluminescent signal. The amount of FT4 present in the test sample is determined by the level of the signed detected and is converted to a dose by a two-point data reduction algorithm.

[2] = tested on: monoclonal anti-digoxin antibody; assay: Digoxin chemiluminescent immunoassay, specificity (cross-reactivity, effect on dose); format: binding; conditions: digoxin assay
Experimental: (§1) A digoxin assay has been developed for the above described automated analyzer. The digoxin assay architecture is a hapten solid phase with a labeled antibody (tracer reagent). In the preferred format of this assay, the tracer reagent is an acridinium ester labeled monoclonal anti-digoxin antibody; and the solid phase is paramagnetic particles to which digoxin-apoferritin has been immobilized. A test sample (150 uL.) and tracer reagent (50 uL.) are dispensed into a cuvette by the analyzer and incubated for 2.5 minutes at 37° C. The solid phase reagent (250 uL.) is then added to the cuvette followed by an additional incubation of 5.0 minutes. After the second incubation, magnetic separation and washes are performed as described above prior to detection of the chemiluminescent signal.
(§2) All data presented was generated based upon a two-point recalibration off an original master curve. The master curve was generated using eight standards with values ranging from zero to 6 ng/mL digoxin.
The test assay has a sensitivity of less than 0.1 ng/mL (minimum detectable dose defined as the 95% confidence limit at 0 ng/mL.) with a range of 0-5 ng/mL. The correlation of the automated test assay with a manual test assay (Magic^R Digoxin, Ciba Corning Diagnostics, Corp.) provided a slope of 1.00, an intercept of 0.08 and a correlation coefficient of 0.97 (N=130).

[3] = tested on: human chorionic gonadotropin (hCG) assay; assay: hCG sandwich immunoassay, interfering substances (NCCLS protocols); conditions: bilirubin 20, lipid 1,000, hemolysate 500 mg/dL
Experimental: A human chorionic gonadotropin (hCG) assay has been developed for the above described automated analyzer. […] A test sample (50 uL.) and tracer reagent (100 uL.) are dispensed into a cuvette by the analyzer and incubated for 5.0 minutes at 37° C. The capture solid phase reagent (450 uL.) is then added to the cuvette followed by an additional incubation of 2.5 minutes. After the second incubation, magnetic separation and washes are performed as described above prior to detection of the chemiluminescent signal.
All data presented was generated based on a two-point calibration off a full standard master curve, consisting of ten standards. The standards, ranging from zero to 1000 mIU/mL., are calibrated against the WHO 1st 75/537 reference material.

[4] = tested on: prostate specific antigen (PSA) assay; assay: PSA chemiluminescent immunoassay, interfering substances (endogenous compounds, chemotherapeutic agents); conditions: mean over three PSA levels
Experimental: A prostate specific antigen (PSA) assay has been developed for the above described automated analyzer. The PSA assay utilizes an anti-PSA antibody solid phase and a labeled anti-PSA antibody as a tracer reagent. […] A test sample (100 uL.), tracer reagent (50 uL.) and solid phase reagent (250 uL.) are dispersed into a cuvette by the analyzer and incubated for 7.5 minutes at 37° C. After the incubation, magnetic separation and washes are performed as described above prior to detection of the chemiluminescent signal.
All data presented was generated based on a two-point calibration off a standard curve consisting of eight points.

[5] = Digoxin immunoassay, interfering substances (NCCLS protocols); conditions: bilirubin 20, lipid 1,000, hemolysate 500 mg/dL
Experimental: as §1, with “In the preferred format of this assay, the tracer reagent is an acridinium ester labeled monoclonal anti-digoxin antibody; and the solid phase is paramagnetic particles to which digoxin-apoferritin has been immobilized.” left out
as §2

## NC(Cc1ccc(Oc2cc(I)c(O)c(I)c2)c(I)c1)C(=O)O (centres unmarked) [Reverse triiodothyronine]
[1]
  % Cross-Reactivity: 3.1%

## N[C@H](Cc1cc(I)c(Oc2cc(I)c(O)c(I)c2)c(I)c1)C(=O)O [D-thyroxine]
[1]
  % Cross-Reactivity: >64%

## CC(=O)O[C@H]1C[C@H](O[C@H]2[C@@H](O)C[C@H](O[C@H]3[C@@H](O)C[C@H](O[C@H]4CC[C@@]5(C)[C@H](CC[C@@H]6[C@@H]5C[C@@H](O)[C@]5(C)[C@@H](C7=CC(=O)OC7)CC[C@]65O)C4)O[C@@H]3C)O[C@@H]2C)O[C@H](C)[C@H]1O[C@@H]1O[C@H](CO)[C@@H](O)[C@H](O)[C@H]1O [Lanatoside C]
[2]
  % Cross-Reactivity: 87.1%

## CO[C@H]1[C@@H](O)C[C@H](O[C@H]2[C@@H](O)C[C@H](O[C@H]3[C@@H](O)C[C@H](O[C@H]4CC[C@@]5(C)[C@H](CC[C@@H]6[C@@H]5C[C@@H](O)[C@]5(C)[C@@H](C7=CC(=O)OC7)CC[C@]65O)C4)O[C@@H]3C)O[C@@H]2C)O[C@@H]1C [β-Methyldigoxin]
[2]
  % Cross-Reactivity: 109.4%

## N[C@@H](Cc1cc(I)c(Oc2ccc(O)c(I)c2)c(I)c1)C(=O)O [L-triiodothyronine]
[1]
  % Cross-Reactivity: 3.9%

## Conjugated Bilirubin
[3]
  Spiked vs. Control: 102%
[4]; endogenous interferents
  Spiked vs. Control, Mean +/− SD: 101 +/− 9%
[5]
  Spiked vs. Control: 106% and 99%

## C=CC1=C(C)/C(=C/c2[nH]c(Cc3[nH]c(/C=C4\NC(=O)C(C)=C4C=C)c(C)c3CCC(=O)O)c(CCC(=O)O)c2C)NC1=O [Unconjug. Bilirubin]
[3]
  Spiked vs. Control: 106% and 98% and 103%
[4]; endogenous interferents
  Spiked vs. Control, Mean +/− SD: 103 +/− 6%
[5]
  Spiked vs. Control: 105% and 99%

## COc1cccc2c1C(=O)c1c(O)c3c(c(O)c1C2=O)C[C@@](O)(C(=O)CO)C[C@@H]3O[C@H]1C[C@H](N)[C@H](O)[C@H](C)O1 [Doxorubicin]
[4]; chemotherapeutic agents
  Spiked vs. Control, Mean +/− SD: 100 +/− 3%

## O=P1(N(CCCl)CCCl)NCCCO1 (centres unmarked) [Cyclophosphamide]
[4]; chemotherapeutic agents
  Spiked vs. Control, Mean +/− SD: 98 +/− 3%

## N[C@H](Cc1cc(I)c(Oc2ccc(O)c(I)c2)c(I)c1)C(=O)O [D-triiodothyronine]
[1]
  % Cross-Reactivity: 3.6%

## Hemoglobin: endogenous interferent spiked into patient samples at 500 mg/dL
[4]; endogenous interferents
  Spiked vs. Control, Mean +/− SD: 99 +/− 4%

## N[C@@H](Cc1cc(I)c(Oc2ccc(O)cc2)c(I)c1)C(=O)O [3,5-diiodo-L-thyronine]
[1]
  % Cross-Reactivity: <0.002%

## C[C@@H]1O[C@@H](O[C@H]2C[C@@H](O)[C@]3(CO)[C@H]4[C@H](O)C[C@]5(C)[C@@H](C6=CC(=O)OC6)CC[C@]5(O)[C@@H]4CC[C@]3(O)C2)[C@H](O)[C@H](O)[C@H]1O [Ouabain]
[2]
  % Cross-Reactivity: 7.3%

## C[C@H]1O[C@@H](O[C@H]2CC[C@@]3(C)[C@H](CC[C@@H]4[C@@H]3C[C@@H](O)[C@]3(C)[C@@H](C5=CC(=O)OC5)CC[C@]43O)C2)C[C@H](O)[C@@H]1O[C@H]1C[C@H](O)[C@H](O[C@H]2C[C@H](O)[C@H](O[C@@H]3O[C@H](CO)[C@@H](O)[C@H](O)[C@H]3O)[C@@H](C)O2)[C@@H](C)O1 [Deslanoside]
[2]
  % Cross-Reactivity: 94.6%

## N[C@@H](Cc1cc(I)c(O)c(I)c1)C(=O)O [Diiodotyrosine]
[1]
  % Cross-Reactivity: <0.002%

## N[C@@H](Cc1ccc(O)c(I)c1)C(=O)O [Monoiodotyrosine]
[1]
  % Cross-Reactivity: <0.002%

## CC/C(=C(/CC)c1ccc(O)cc1)c1ccc(O)cc1 [Diethyl-Stilbesterol]
[4]; chemotherapeutic agents
  Spiked vs. Control, Mean +/− SD: 101 +/− 5%

## CC(=O)O[C@]1(C(C)=O)CC[C@H]2[C@@H]3C=C(C)C4=CC(=O)CC[C@]4(C)[C@H]3CC[C@@]21C [Megestrol Acetate]
[4]; chemotherapeutic agents
  Spiked vs. Control, Mean +/− SD: 101 +/− 5%

## C[C@H]1O[C@@H](O[C@H]2[C@@H](O)C[C@H](O[C@H]3[C@@H](O)C[C@H](O[C@H]4CC[C@@]5(C)[C@H](CC[C@@H]6[C@@H]5CC[C@]5(C)[C@@H](C7=CC(=O)OC7)CC[C@]65O)C4)O[C@@H]3C)O[C@@H]2C)C[C@H](O)[C@@H]1O [Digitoxin]
[2]
  % Cross-Reactivity: 0.6%
